Measurements from ChEMBL document CHEMBL1151378, “Anticancer indole alkaloids of Rhazya stricta” (1981).
Converted amounts (≈) assume the structure as drawn.

What was measured:
[1] = tested on: P388; experiment: Cytotoxicity against mouse P388 cells; assay type: functional; details: read-out: ED50 (the source's name)
[2] = tested on: KB; experiment: Cytotoxicity against human KB cells; assay type: functional; details: read-out: ED50 (the source's name)

Structure (SMILES) | EC50 [1] | EC50 [2]
CCC1CCCN(CCc2c([C@H]3CCCc4c(CCN5CCCC(CC)C5)c5ccccc5n43)[nH]c3ccccc23)C1 (stereo partly drawn) | 0.29 µg/mL (≈ 0.513 µM) | 0.5 µg/mL (≈ 0.885 µM)
CCC1CCCN(CCc2c([C@@]3(COC(C)=O)CC[C@@H](COC(C)=O)c4c(CCN5CCCC(CC)C5)c5ccccc5n43)[nH]c3ccccc23)C1 (stereo partly drawn) | 1.6 µg/mL (≈ 2.26 µM) | 2.4 µg/mL (≈ 3.39 µM)
C/C=C1/CN2[C@H]3Cc4c([nH]c5ccccc45)[C@@H]2C[C@@H]1[C@@]3(CO)C(=O)OC [POLYNEURIDINE] | > 100 µg/mL | > 100 µg/mL
C/C=C1/CN2CC[C@]34C(=C(C(=O)OC)[C@H]1C[C@H]23)Nc1ccc(O)cc14 [SEWARINE] | 2.7 µg/mL (≈ 7.98 µM) | 
CCC1CCCN(CCc2c([C@@]3(CO)CC[C@@H](CO)c4c(CCN5CCCC(CC)C5)c5ccccc5n43)[nH]c3ccccc23)C1 (stereo partly drawn) [TETRAHYDROSECAMINEDIOL] | 0.33 µg/mL (≈ 0.528 µM) | 0.0038 µg/mL (≈ 0.00608 µM)
CCC1CCCN(CCc2c([C@@]3(C(=O)OC)CC[C@@H](C(=O)OC)c4c(CCN5CCCC(CC)C5)c5ccccc5n43)[nH]c3ccccc23)C1 (stereo partly drawn) [TETRAHYDROSECAMINE] | 0.4 µg/mL (≈ 0.587 µM) | 0.69 µg/mL (≈ 1.01 µM)
C/C=C(/C=O)[C@@H]1C[C@H]2c3[nH]c4ccccc4c3CCN2C=C1C(=O)OC [VALLESIACHOTAMINE] | 1.1 µg/mL (≈ 3.14 µM) | 3.56 µg/mL (≈ 10.2 µM)
